In brackets after ≈: the same amount, converted by molar mass.
Tests used:
[1] = test system: S. aureus ATCC 700699 and S. aureus ATCC 33591; test: Time-Kill Assay; assay type: cell-based; settings: 4×MIC
Experimental: Time kill assay for test antibiotics against S. aureus ATCC 700699 and S. aureus ATCC 33591 strains was conducted using procedures published previously.^26 Briefly, a log-phase bacterial culture was diluted to ˜5×10^6 CFU/ml in warm sterile CAMHB broth and was exposed to antibiotics at 4×MIC concentration then incubated at 35° C. Samples of 20 μl were taken every 2 hours, diluted 10 fold to 10^−5, and the 6×6 drop plate method was performed to determine viable CFU/ml after 18-24 hours of incubation at 35° C. Each antibiotic time-kill assay was conducted in triplicate.

[2] = test system: S. aureus ATCC 700699 (Sa99); test: Minimal inhibitory concentration (MIC) assay; assay type: cell-based; settings: Staphylococcus aureus, ATCC700699; S. aureus ATCC 700699, antibiotic-resistant strain; read-out: Antimicrobial activity (MIC) Sa99
Experimental: (§1) Minimal inhibitory concentration (MIC) assay The standard microdilution method recommended by the Clinical and Laboratory Standards Institute (CLSI) was used to determine the MIC of the antibiotics. The starting concentration of compounds was 50 μg/ml and 2-fold dilution was done down the 96 honeycomb well plate column. The MIC assay was conducted in triplicates.

[3] = test system: S. aureus BAA-2312 (Sa12); test: Minimal inhibitory concentration (MIC) assay; assay type: cell-based; settings: Staphylococcus aureus, BAA2312; S. aureus BAA-2312, antibiotic-resistant strain; read-out: Antimicrobial activity (MIC) Sa12
Experimental: as §1

[4] = test system: S. aureus ATCC 33591 (Sa91); test: Minimal inhibitory concentration (MIC) assay; assay type: cell-based; settings: Staphylococcus aureus, ATCC33591; S. aureus ATCC 33591, antibiotic-resistant strain; read-out: Antimicrobial activity (MIC) Sa91
Experimental: as §1

[5] = test system: S. aureus ATCC 33592 (Sa92); test: Minimal inhibitory concentration (MIC) assay; assay type: cell-based; settings: Staphylococcus aureus, ATCC33592; S. aureus ATCC 33592, antibiotic-resistant strain; read-out: Antimicrobial activity (MIC) Sa92
Experimental: as §1

[6] = test system: Enterococcus faecium ATCC 700221 (Em21); test: Minimal inhibitory concentration (MIC) assay; assay type: cell-based; settings: Enterococcus faecium, ATCC700221, Enterococcus faecium ATCC 700221; read-out: Antimicrobial activity (MIC) Em21
Experimental: as §1

[7] = test system: Enterococcus faecalis ATCC 29212 (Es12); test: Minimal inhibitory concentration (MIC) assay; assay type: cell-based; settings: ATCC29212; Enterococcus faecalis ATCC 29212; read-out: Antimicrobial activity (MIC) Es12
Experimental: as §1

[8] = test system: B. subtilis ATCC 6623 (Bs); test: Minimal inhibitory concentration (MIC) assay; assay type: cell-based; settings: Bacillus subtilis, ATCC6623; B. subtilis ATCC 6623; read-out: Antimicrobial activity (MIC) Bs
Experimental: as §1

[9] = test system: S. aureus ATCC 25923 (Sa23); test: Minimal inhibitory concentration (MIC) assay; assay type: cell-based; settings: Staphylococcus aureus, ATCC25923; S. aureus ATCC 25923, antibiotic susceptible strain; read-out: Antimicrobial activity (MIC) Sa23
Experimental: as §1

MRSA persisters = test: Persister Cell Killing Assay
Experimental: A persister cell killing assay was performed following the methodology described by Kim et. al. with some modifications.^28 S. aureus strain was grown to stationary phase in CAMHB medium by shaking at 200 rpm overnight at 35° C. An aliquot of stationary phase culture (1 ml) was washed thrice with 1×PBS by centrifugation. After washing, the cells were diluted to ˜5×10^8 CFU/ml (confirmed by plate count). Diluted persister cells (2 ml) plus antibiotics at the desired concentration were incubated in sterile 10×75 mm plastic culture tubes at 35° C. with shaking at 200 rpm. At specific times, 400 μl aliquots were placed into microcentrifuge tubes and the cells washed and serially diluted in PBS. The diluted sample was plated on TSA agar plate with 5% sheep blood by the 6×6 drop plate method. Plates were incubated for 18-20 hours at 35° C., and then colonies were counted to calculate concentrations in CFU/ml. The experiment was performed in triplicates.

[10] = test system: treated bacteria (differentially expressed proteins); test: Quantitative proteomics: protein regulation by Compound 16 versus DMSO control
S. aureus strains = test: MIC, summary over S. aureus strains; assay type: cell-based; settings: Staphylococcus aureus; lowest MIC over S. aureus strains; read-out: minimum inhibitory concentration (MIC) value as low as
Experimental: as §1

SMILES: C=C(C)[C@@H]1CC=C2c3sc(-c4ccc(O)c(O)c4)nc3C[C@@H](C)[C@]2(C)C1 [Compound 16]
- eliminated bacteria at [1]: 6 h
- time kill assay: mode of action [1]: bactericidal
- MIC [2]: 3.12 µg/mL (≈ 8.49 µM)
- MIC [3]: 3.12 µg/mL (≈ 8.49 µM)
- MIC [4]: 6.25 µg/mL (≈ 17 µM)
- MIC [5]: 3.12 µg/mL (≈ 8.49 µM)
- MIC [6]: 1.56 µg/mL (≈ 4.24 µM)
- MIC [7]: 12.5 µg/mL (≈ 34 µM)
- MIC [8]: 12.5 µg/mL (≈ 34 µM)
- MIC [9]: 3.12 µg/mL (≈ 8.49 µM)
- ability to kill MRSA persisters (MRSA persisters): inhibited the growth of persisters significantly
- CFU count (MRSA persisters; after 4 hrs exposure, 128×MIC): 2×10^7 CFU
- potency against the persister compared with positive controls (MRSA persisters; versus vancomycin and gentamicin): several fold more potent than the positive controls
- Log(FC) ([10]; gene SAV0307 (A0A0H3JQ49): Similar to outer membrane protein, ⅛ MIC): 1.313
- Log(FC) ([10]; gene SAV0486: Initiation-control protein YabA, ⅛ MIC): −1.076
- Log(FC) ([10]; gene SAV0831: Similar to thioredoxin, ⅛ MIC): −1.298
- Log(FC) ([10]; gene SAV1155 (A0A0H3JUX1): Fibrinogen-binding protein, ⅛ MIC): 4.341
- Log(FC) ([10]; gene SAV1291: Thiamine_BP domain-containing protein, ⅛ MIC): −1.399
- Log(FC) ([10]; gene SAV1556: ABC transporter MreA, ⅛ MIC): −1.267
- Log(FC) ([10]; gene SAV1615: UPF0473 protein SAV1615, ⅛ MIC): −1.3145
- Log(FC) ([10]; gene SAV1617: UPF0297 protein SAV1617, ⅛ MIC): −2.321
- Log(FC) ([10]; gene SAV1876: Uncharacterized protein, ⅛ MIC): −3.169
- Log(FC) ([10]; gene SAV1880: UPF0435 protein SAV1880, ⅛ MIC): −1.529
- Log(FC) ([10]; gene SAV2592: 3-dmu-9_3-mt domain-containing protein, ⅛ MIC): −1.105
- Log(FC) ([10]; gene acpP: Acyl carrier protein, ⅛ MIC): −1.463
- Log(FC) ([10]; gene coa (A0A0H3JPA2): Staphylocoagulase, ⅛ MIC): 4.524
- Log(FC) ([10]; gene esxA: Type VII secretion system extracellular protein A, ⅛ MIC): −1.698
- Log(FC) ([10]; gene ftnA: Bacterial non-heme ferritin, ⅛ MIC): −1.122
- Log(FC) ([10]; gene gate: Aspartyl/glutamyl-tRNA (Asn/Gln) amidotransferase subunit C, ⅛ MIC): −2.722
- Log(FC) ([10]; gene hit: Hit-like protein involved in cell-cycle regulation, ⅛ MIC): −1.253
- Log(FC) ([10]; gene lip1 (P65288): Lipase 1, ⅛ MIC): 1.631
- Log(FC) ([10]; gene mecA (A0A0H3JPA5): Penicillin binding protein 2 prime, ⅛ MIC): 1.378
- Log(FC) ([10]; gene moaD: Molybdopterin synthase sulfur carrier subunit, ⅛ MIC): −1.617
- Log(FC) ([10]; gene narG: Nitrate reductase (quinone), ⅛ MIC): −1.5746
- Log(FC) ([10]; gene nasD: Nitrite reductase, ⅛ MIC): −1.201
- Log(FC) ([10]; gene rsbV: Anti-sigma-B factor antagonist, ⅛ MIC): −1.199
- Log(FC) ([10]; gene sbi (Q931F4): Immunoglobulin-binding protein Sbi, ⅛ MIC): 1.71
- MIC (S. aureus strains): 3.12 µg/mL (≈ 8.5 µM)

Source: patent US11970473B2, “Nootkatone derivatives and methods of using the same” (Arkansas State University—Jonesboro, priority 2021, dated 2024)
